Experimental data from patent publication US20070179060A1, “6-(Poly-substituted aryl)-4-aminopicolinates and their use as herbicides” (priority 2006, published 2007).

Key:
[1] = tested on: lambsquarter (Chenopodium album); test: Preemergence herbicidal activity; assay type: in vivo; conditions: pre-emergent, 140 g ai/ha, after 20-22 days; for pest or weed control at 140 g/ha: Chenopodium album, pre-emergence, 480 h, read-out: % Control CHEAL
Source text: (§1) Seeds of the desired test plant species were planted in a soil matrix prepared by mixing a loam soil (43 percent silt, 19 percent clay, and 38 percent sand, with a pH of about 8.1 and an organic matter content of about 1.5 percent) and sand in a 70 to 30 ratio. The soil matrix was contained in plastic pots with a surface area of 113 square centimeters. When required to ensure good germination and healthy plants, a fungicide treatment and/or other chemical or physical treatment was applied. […] Compound requirements are based upon a 12 mL application volume at a rate of 187 L/ha. Formulated compounds were applied to the plant material with an overhead Mandel track sprayer equipped with a […] nozzles calibrated to deliver 187 L/ha over an application area of 0.503 square meters at a spray height of 18 inches (43 cm) above the soil surface. Control plants were sprayed in the same manner with the solvent blank. The treated pots and control pots were placed in a greenhouse maintained with an approximate 15 hour photoperiod and temperatures of about 23-29° C. during the day and 22-28° C. during the night. Nutrients and water were added on a regular basis and supplemental lighting was provided with overhead metal halide 1000-watt lamps as necessary. The water was added by top-irrigation.

[2] = tested on: redroot pigweed (Amaranthus retroflexus); test: Preemergence herbicidal activity; assay type: in vivo; conditions: pre-emergent, 140 g ai/ha, after 20-22 days; for pest or weed control at 140 g/ha: Amaranthus retroflexus, pre-emergence, 480 h, read-out: % Control AMARE
Source text: as §1

[3] = tested on: velvetleaf (Abutilon theophrasti); test: Preemergence herbicidal activity; assay type: in vivo; conditions: pre-emergent, 140 g ai/ha, after 20-22 days; for pest or weed control at 140 g/ha: Abutilon theophrasti, pre-emergence, 480 h, read-out: % Control ABUTH
Source text: as §1

[4] = tested on: lambsquarter (Chenopodium album); test: Postemergence herbicidal activity; assay type: in vivo; conditions: post-emergent, 140 g ai/ha, after 14 days; for pest or weed control at 140 g/ha: Chenopodium album, post-emergence, 336 h, read-out: % Control CHEAL
Procedure: (§2) Seeds or nutlets of the desired test plant species were planted in Sun Gro MetroMix® 306 planting mixture, which typically has a pH of 6.0 to 6.8 and an organic matter content of about 30 percent, in plastic pots with a surface area of 64 square centimeters. When required to ensure good germination and healthy plants, a fungicide treatment and/or other chemical or physical treatment was applied. The plants were grown for 7-21 days in a greenhouse with an approximate 15 hour photoperiod which was maintained at about 23-29° C. during the day and 22-28° C. during the night. Nutrients and water were added on a regular basis and supplemental lighting was provided with overhead metal halide 1000-Watt lamps as necessary. The plants were employed for testing when they reached the first or second true leaf stage. […] The concentrated stock solutions obtained were diluted with 20 mL of an aqueous mixture containing acetone, water, isopropyl alcohol, DMSO, Atplus 411F crop oil concentrate, and Triton® X-155 surfactant in a 48.5:39:10:1.5:1.0:0.02 v/v ratio to obtain spray solutions containing the highest application rates. […] Compound requirements are based upon a 12 mL application volume at a rate of 187 L/ha. Formulated compounds were applied to the plant material with an overhead Mandel track sprayer equipped with a […] nozzles calibrated to deliver 187 L/ha over an application area of 0.503 square meters at a spray height of 18 inches (43 cm) above the average plant canopy height. Control plants were sprayed in the same manner with the solvent blank. The treated plants and control plants were placed in a greenhouse as described above and watered by sub-irrigation to prevent wash-off of the test compounds. […] By applying the well-accepted probit analysis as described by J. Berkson in Journal of the American Statistical […], 48, 565 (1953) and by D.

[5] = tested on: redroot pigweed (Amaranthus retroflexus); test: Postemergence herbicidal activity; assay type: in vivo; conditions: post-emergent, 140 g ai/ha, after 14 days; for pest or weed control at 140 g/ha: Amaranthus retroflexus, post-emergence, 336 h, read-out: % Control AMARE
Procedure: as §2

[6] = tested on: velvetleaf (Abutilon theophrasti); test: Postemergence herbicidal activity; assay type: in vivo; conditions: post-emergent, 140 g ai/ha, after 14 days; for pest or weed control at 140 g/ha: Abutilon theophrasti, post-emergence, 336 h, read-out: % Control ABUTH
Procedure: as §2

| melting point | SMILES | pest or weed control at 140 g/ha [1] [%] | pest or weed control at 140 g/ha [2] [%] | pest or weed control at 140 g/ha [3] [%] | pest or weed control at 140 g/ha [4] [%] | pest or weed control at 140 g/ha [5] [%] | pest or weed control at 140 g/ha [6] [%] | % Control CHEAL [1] [%] | % Control AMARE [2] [%] | % Control ABUTH [3] [%] | % Control CHEAL [4] [%] | % Control AMARE [5] [%] | % Control ABUTH [6] [%] |
| --- | --- | --- | --- | --- | --- | --- | --- | --- | --- | --- | --- | --- | --- |
| – | CCOc1c(Cl)cc(F)c(-c2cc(N)c(Cl)c(C(=O)OC)n2)c1F [Compound 59, 4-Amino-3-chloro-6-(4-chloro-2,6-difluoro-3-ethoxyphenyl)pyridine-2-carboxylic acid, methyl ester] | 60 | 100 | 90 | 90 | 90 | 100 | – | – | – | – | – | – |
| – | COC(=O)c1nc(-c2ccc(Cl)c(C(F)F)c2Cl)cc(N)c1Cl [Compound 62, 4-Amino-3-chloro-6-(2,4-dichloro-3-difluoromethylphenyl)pyridine-2-carboxylic acid, methyl ester] | 100 | 100 | 100 | 100 | 100 | 100 | – | – | – | – | – | – |
| – | COC(=O)c1nc(-c2ccc(Cl)c(C(C)F)c2Cl)cc(N)c1Cl (centres unmarked) [Compound 63] | – | – | – | – | – | – | 100 | 100 | 100 | 100 | 100 | 100 |
| – | COC(=O)c1nc(-c2ccc(Cl)c(C(=O)C(F)(F)F)c2F)cc(N)c1Cl [Compound 82, 4-Amino-3-chloro-6-[4-chloro-2-fluoro-3-(2,2,2-trifluoroacetyl)phenyl]pyridine-2-carboxylic acid, methyl ester] | 100 | 100 | 90 | 95 | 100 | 100 | – | – | – | – | – | – |
| – | COC(=O)c1nc(-c2c(F)cc(C#N)c(OC)c2F)cc(N)c1Cl [Compound 95, 4-amino-3-chloro-6-(4-cyano-2,6-difluoro-3-methoxyphenyl)pyridine-2-carboxylic acid, methyl ester] | 90 | 90 | 90 | 90 | 85 | 100 | – | – | – | – | – | – |
| – | Nc1cc(-c2ccc(Cl)c(OCC(F)F)c2F)nc(C(=O)O)c1Cl [Compound 96, 4-Amino-3-chloro-6-(4-chloro-2-fluoro-3-(2,2-difluoroethoxy)phenyl)pyridine-2-carboxylic acid] | 40 | 70 | 20 | 90 | 100 | 50 | – | – | – | – | – | – |
| 177 to 178 °C (dec.) | COc1c(C(F)(F)F)ccc(-c2cc(N)c(Cl)c(C(=O)O)n2)c1F [Compound 107, 4-Amino-3-chloro-6-(2-fluoro-3-methoxy-4-trifluoromethylphenyl)pyridine-2-carboxylic acid] | – | – | – | 90 | 80 | 100 | – | – | – | – | – | – |
| – | CN(C)c1cc(-c2cc(N)c(Cl)c(C(=O)O)n2)c(F)cc1Cl [Compound 111, 4-Amino-3-chloro-6-(4-chloro-5-dimethyamino-2-fluorophenyl)pyridine-2-carboxylic acid] | – | – | – | – | – | – | 100 | 100 | 35 | – | – | – |
| – | CN(C)c1c(Cl)ccc(-c2cc(N)c(Cl)c(C(=O)O)n2)c1F [Compound 112, 4-Amino-3-chloro-6-(4-chloro-3-dimethyamino-2-fluorophenyl)pyridine-2-carboxylic acid] | – | – | – | – | – | – | 100 | 100 | 100 | 100 | 100 | 100 |
| 177 to 178 °C | CN(C)c1c(Cl)ccc(-c2cc(N)c(Cl)c(C(=O)O)n2)c1Cl [Compound 117, 4-Amino-3-chloro-6-[2,4-dichloro-3-(dimethylamino)phenyl]pyridine-2-carboxylic acid] | – | – | – | 100 | 100 | 100 | – | – | – | – | – | – |
| 185 to 186 °C | CNc1c(Cl)ccc(-c2cc(N)c(Cl)c(C(=O)O)n2)c1F [Compound 118, 4-Amino-3-chloro-6-[4-chloro-2-fluoro-3-(methylamino)phenyl]pyridine-2-carboxylic acid] | – | – | – | 100 | 100 | 100 | – | – | – | – | – | – |
| 178 to 179 °C | COc1c(C)ccc(-c2cc(N)c(Cl)c(C(=O)O)n2)c1F [Compound 119, 4-Amino-3-chloro-6-(2-fluoro-3-methoxy-4-methylphenyl)pyridine-2-carboxylic acid] | – | – | – | 95 | 100 | 100 | – | – | – | – | – | – |
| – | COc1c(Cl)ccc(-c2nc(C(=O)O)c(Cl)c(N)c2F)c1F [Compound 123, 4-Amino-3-chloro-6-(4-chloro-2-fluoro-3-methoxyphenyl)-5-fluoropyridine-2-carboxylic acid] | 100 | 100 | 100 | 100 | 100 | 100 | – | – | – | – | – | – |
| 182 to 183 °C (dec.) | Nc1cc(-c2ccc(Cl)c(C(F)F)c2Cl)nc(C(=O)O)c1Cl [Compound 126, 4-Amino-3-chloro-6-(2,4-dichloro-3-difluoromethylphenyl)pyridine-2-carboxylic acid] | – | – | – | 100 | 100 | 90 | – | – | – | – | – | – |
| 175 to 176 °C (dec.) | Nc1cc(-c2ccc(Cl)c(C(F)C(F)(F)F)c2F)nc(C(=O)O)c1Cl (centres unmarked) [Compound 129, 4-Amino-3-chloro-6-[4-chloro-2-fluoro-3-(1,2,2,2-tetrafluoroethyl)-phenyl)pyridine-2-carboxylic acid] | – | – | – | 90 | 95 | 85 | – | – | – | – | – | – |
| 165 to 167 °C (dec.) | CCC(F)c1c(Cl)ccc(-c2cc(N)c(Cl)c(C(=O)OC)n2)c1F (centres unmarked) [Compound 130, 4-Amino-3-chloro-6-[4-chloro-2-fluoro-3-(1-fluoropropyl)phenyl]pyridine-2-carboxylic acid, methyl ester] | – | – | – | 95 | 95 | 80 | – | – | – | – | – | – |
| – | Nc1cc(-c2ccc(F)c(F)c2F)nc(C(=O)O)c1Cl [Compound 131, 4-Amino-3-chloro-6-(2,3,4-trifluorophenyl)pyridine-2-carboxlic acid] | – | – | – | – | – | – | 100 | 100 | 90 | 100 | 100 | 100 |
| 179 °C (dec.) | Nc1cc(-c2ccc(Cl)c(OC(F)F)c2F)nc(C(=O)O)c1Cl [Compound 134, 4-Amino-3-chloro-6-(4-chloro-3-difluoromethoxy-2-fluorophenyl)pyridine-2-carboxylic acid] | – | – | – | 90 | 100 | 95 | – | – | – | – | – | – |
